According to patent US11291726B2 (KOREA INSTITUTE OF SCIENCE AND TECHNOLOGY, priority 2018, dated 2022):

What was measured:
[1] = system: HT-29 cells (human colon cancer) solid tumors; assay: Cancer cell accumulation in cancer disease model via fluorescence imaging; format: in vivo; conditions: HT-29 tumor on left thigh of nude mice, 200 μL intravenously
Protocol: The model with a cancer disease was prepared by subcutaneous injection of 1×10^7 HT-29 cells (human colon cancer, Korean Cell Line Bank) on the left thigh of 5-week-old male nude mice (Orientbio Inc., Korea). After 2 weeks of cancer cell transplantation, solid tumors were confirmed to be formed, and then subsequent experiments were performed.

[2] = Photothermal efficiency (solution temperature under laser irradiation); format: physicochemical; conditions: laser 808 nm, 1 W; followed by temperature decrease due to photodegradation
Source text: Such an increase of photothermal efficiency of the ICG-Fe NPs is thought to be due to fluorescence of ICG, which competitively acts on the photothermal reaction and is present within the nanoparticles in a fluorescence-quenched state.

nude mice = assay: Toxicity in animal models (blood liver levels, liver/kidney tissue staining); format: in vivo; conditions: 200 μL intravenously, male nude mice, two days later
Source text: Two days later, blood and liver/kidney tissues were collected and evaluated for toxicity.

With `CC1(C)C(/C=C/C=C/C=C/C=C2\N(CCCCS(=O)(=O)O)c3ccc4ccccc4c3C2(C)C)=[N+](CCCCS(=O)(=O)[O-])c2ccc3ccccc3c21` [ICG, indocyanine green] the “fluorescence at the cancer site (accumulation)” value [1] was “did not show fluorescence at the cancer site”, the “temperature increase at the beginning of laser irradiation” value [2] was “about 45 °C” and the “AST/ALT values (blood liver levels)” value (nude mice) was “normal levels”. The immunostained liver/kidney tissues (nude mice) was “no abnormalities were found”.
